The record followed here is ChEMBL document CHEMBL4627346, “Ultrasound assisted rapid synthesis of mefenamic acid based indole derivatives under ligand free Cu-catalysis: Their pharmacological evaluation” (Bioorg Med Chem Lett, 2020).

Series [1] has as its target T1, 3',5'-cyclic-AMP phosphodiesterase 4B (Homo sapiens, UniProt Q07343). The series is described as follows: Inhibition of recombinant human PDE4B expressed in baculovirus infected Sf9 cells at 10 uM using [3H] cAMP as substrate after 30 min by scintillation proximity assay relative to control. In general terms: SPA uses beads or plates that emit light when radiolabelled molecules are held near them.

The target in series [2] is T2, 3',5'-cyclic-AMP phosphodiesterase 4D (Homo sapiens, UniProt Q08499). The series is described as follows: Inhibition of PDE4D2 (unknown origin) at 30 uM relative to control.
T2 sequence (Q08499 whole entry): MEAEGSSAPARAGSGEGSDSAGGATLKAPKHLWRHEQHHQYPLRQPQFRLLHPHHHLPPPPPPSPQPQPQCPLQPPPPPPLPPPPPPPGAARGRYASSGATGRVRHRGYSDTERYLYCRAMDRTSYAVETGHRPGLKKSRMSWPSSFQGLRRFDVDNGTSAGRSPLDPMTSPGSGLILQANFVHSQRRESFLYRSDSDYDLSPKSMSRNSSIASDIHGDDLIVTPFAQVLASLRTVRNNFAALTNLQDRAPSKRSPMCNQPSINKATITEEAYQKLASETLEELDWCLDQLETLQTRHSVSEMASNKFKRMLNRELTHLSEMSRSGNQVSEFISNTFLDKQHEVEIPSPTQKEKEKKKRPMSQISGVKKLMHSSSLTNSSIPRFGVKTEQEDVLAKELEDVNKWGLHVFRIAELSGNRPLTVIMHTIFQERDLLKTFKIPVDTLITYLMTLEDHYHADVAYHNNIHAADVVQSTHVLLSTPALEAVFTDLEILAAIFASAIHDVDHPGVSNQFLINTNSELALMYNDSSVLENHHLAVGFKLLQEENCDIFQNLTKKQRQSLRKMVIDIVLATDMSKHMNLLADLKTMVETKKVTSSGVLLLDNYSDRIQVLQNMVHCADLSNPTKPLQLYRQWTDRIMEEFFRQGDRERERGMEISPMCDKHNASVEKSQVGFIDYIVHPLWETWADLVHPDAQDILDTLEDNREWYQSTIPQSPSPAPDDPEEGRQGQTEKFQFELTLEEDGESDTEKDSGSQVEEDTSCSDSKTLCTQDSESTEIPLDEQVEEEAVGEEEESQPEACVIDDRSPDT
The target in series [3] is T2, 3',5'-cyclic-AMP phosphodiesterase 4D. Briefly: Inhibition of PDE4D2 (unknown origin) at 10 nM relative to control.
In series [4] the target is T1, 3',5'-cyclic-AMP phosphodiesterase 4B. As to conditions: Sf9, 10 nM.
Description: Inhibition of recombinant human PDE4B expressed in baculovirus infected Sf9 cells at 10 nM using [3H] cAMP as substrate after 30 min by scintillation proximity assay relative to control
Series [5] has the same target. Briefly: Inhibition of recombinant human PDE4B expressed in baculovirus infected Sf9 cells using [3H] cAMP as substrate after 30 min by scintillation proximity assay.
Another series concerns the target Phosphodiesterase 4 (Homo sapiens, UniProt P27815+Q08499+Q07343+Q08493). Briefly: Inhibition of PDE4 (unknown origin) assessed as inhibition of TNF-alpha release. It counts as protein assay.
The species entered for a further series is Homo sapiens. The series is described as follows: Selectivity ratio of inhibition of PDE4D2 (unknown origin) to inhibition of recombinant human PDE4B expressed in baculovirus infected Sf9 cells using [3H] cAMP as substrate after 30 min.
Series [6] is described as follows: Metabolic stability in rat liver microsomes assessed as parent compound remaining at 5 uM after 60 mins. It counts as ADME, Microsome. As to conditions: read-out: Stability.
Series [7] in a line: Half life in rat liver microsomes at 5 uM incubated for 60 mins. The format is ADME, Microsome. In general terms: Microsomes from liver hold many membrane-bound enzymes, among them those of drug oxidation.
Another series deals with CAL-27. Briefly: Antiproliferative activity against human CAL27 cells assessed as growth inhibition at 10 uM incubated for 72 hrs by sulforhodamine B assay. The format is functional. The settings on record: CAL-27, 72 h, read-out: GI. Background: Sulforhodamine B stains cellular protein and so reports cell mass.
The target in series [8] is T2, 3',5'-cyclic-AMP phosphodiesterase 4D. Briefly: Inhibition of PDE4D2 (unknown origin) at 10 uM relative to control.
The nature of series [9]: Intrinsic clearance in rat liver microsomes at 5 uM after 60 mins. It counts as ADME, Microsome. As to conditions: read-out: CLH.

T1 sequence (Q07343 whole entry): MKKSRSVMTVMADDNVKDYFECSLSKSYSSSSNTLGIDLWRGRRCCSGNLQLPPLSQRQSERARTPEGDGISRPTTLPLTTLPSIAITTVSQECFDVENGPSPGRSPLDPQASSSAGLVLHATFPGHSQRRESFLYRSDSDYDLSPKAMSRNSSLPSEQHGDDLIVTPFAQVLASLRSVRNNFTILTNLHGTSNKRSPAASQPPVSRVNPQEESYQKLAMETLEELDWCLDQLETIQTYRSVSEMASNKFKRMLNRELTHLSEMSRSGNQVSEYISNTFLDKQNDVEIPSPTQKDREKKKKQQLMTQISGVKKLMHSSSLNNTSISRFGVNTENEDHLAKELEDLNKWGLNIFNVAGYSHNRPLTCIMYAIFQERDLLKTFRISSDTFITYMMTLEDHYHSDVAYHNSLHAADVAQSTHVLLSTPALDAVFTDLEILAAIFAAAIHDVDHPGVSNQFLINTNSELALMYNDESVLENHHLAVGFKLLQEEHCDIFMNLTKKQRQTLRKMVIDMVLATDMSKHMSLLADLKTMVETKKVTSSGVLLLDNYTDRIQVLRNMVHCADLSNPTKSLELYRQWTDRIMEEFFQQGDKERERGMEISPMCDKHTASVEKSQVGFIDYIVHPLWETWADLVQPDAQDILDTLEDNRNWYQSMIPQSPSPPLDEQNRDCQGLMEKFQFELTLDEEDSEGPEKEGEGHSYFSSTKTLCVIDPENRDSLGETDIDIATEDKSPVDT

`Cc1ccc(S(=O)(=O)n2c(COCc3ccccc3Nc3cccc(C)c3C)cc3ccccc32)cc1`: in series [1], the inhibition came to 39.9%.

In [2], `Cc1cccc(Nc2ccccc2C(=O)O)c1C` [MEFENAMIC ACID] came in with an inhibition at 30 µM of 35.5%. For the same compound, in series [1], the inhibition amounted to 38.9%.

In turn, `O=C(Nc1c(Cl)cncc1Cl)c1ccc(OC(F)F)c(OCC2CC2)c1` [ROFLUMILAST] returned an inhibition at 0.01 µM in series [3] of 88.3%. In [4], this compound returned an inhibition of 91.6%.

Consider `Cc1ccc2c(c1)cc(COCc1ccccc1Nc1cccc(C)c1C)n2S(C)(=O)=O`, for which the IC50 in series [5] stood at 4.13 µM. The compound further gave an inhibition at 30 µM in series [2] of 38.9%. Further, the inhibition in [1] came out at 55.1%.

Consider `Cc1ccc(S(=O)(=O)n2c(COCc3ccccc3Nc3cccc(C)c3C)cc3cc(C)cc(C)c32)cc1`, for which the inhibition in series [1] came to 23.1%.

Turning to `Cc1cccc(Nc2ccccc2COCc2cc3cc(Br)ccc3n2S(C)(=O)=O)c1C`, the inhibition in series [1] was found to be 40.4%.

Turning to `Cc1ccc(S(=O)(=O)n2c(COCc3ccccc3Nc3cccc(C)c3C)cc3cc(Br)ccc32)cc1`, the inhibition in [1] turned out to be 24.6%.

Consider `Cc1cccc(Nc2ccccc2COCc2cc3cc(F)ccc3n2S(C)(=O)=O)c1C`, for which the IC50 came to 1.34 µM in series [5] and 5.81 µM at Phosphodiesterase 4. For the same compound, the inhibition entry is “Dose-dependent effect” on Phosphodiesterase 4 and 68% in series [1]. The Selectivity ratio in the series listed under Homo sapiens turned out to be 4.5. Moreover, the remaining at 1 h, 5 µM in [6] was found to be 64.9%. This compound showed an inhibition at 30 µM in series [2] of 42%. Besides, the half-life at 5 µM in series [7] came to 1.83 h. Besides, the inhibition of growth at 10 µM with CAL-27 turned out to be 55.6%. Also, in series [8], testing at 10 µM gave an inhibition of 15%. Besides, the microsomal CLint at 5 µM in [9] was determined as 25.2 µL/min/mg.

Take `CCc1ccc2c(c1)cc(COCc1ccccc1Nc1cccc(C)c1C)n2S(=O)(=O)c1ccc(C)cc1`: in series [1], the inhibition stood at 32.1%.

With `Cc1ccc(S(=O)(=O)n2c(COCc3ccccc3Nc3cccc(C)c3C)cc3cc(F)ccc32)cc1`, in [1], the inhibition came to 34.6%.

`Cc1cccc(Nc2ccccc2COCc2cc3cc(Cl)ccc3n2S(C)(=O)=O)c1C`: the half-inhibitory concentration (IC50) in series [5] worked out at 4.48 µM. The compound also yielded an inhibition at 30 µM in series [2] of 33.6%. The inhibition in [1] is 54.9%.

As for `Cc1cccc(Nc2ccccc2COCc2cc3ccccc3n2S(C)(=O)=O)c1C`, the IC50 in [5] amounted to 1.76 µM. In series [2], this compound registered an inhibition at 30 µM of 40.9%. Also, the inhibition in series [1] was found to be 61.5%.

Take `Cc1cc(C)c2c(c1)cc(COCc1ccccc1Nc1cccc(C)c1C)n2S(C)(=O)=O`: the inhibition in series [1] is 37.3%.

Turning to `Cc1ccc(S(=O)(=O)n2c(COCc3ccccc3Nc3cccc(C)c3C)cc3cc(Cl)ccc32)cc1`, the inhibition in series [1] is 26.8%.

With `Cc1ccc(S(=O)(=O)n2c(COCc3ccccc3Nc3cccc(C)c3C)cc3cc(C)ccc32)cc1`, in series [1], the inhibition worked out at 36.2%.

Usually inhibition stands for the relative decrease from the control value, in per cent. In general, IC50 refers to the concentration at which inhibition is half-maximal. Broadly, the half-life is the time needed for the level to fall by half in the phase considered. Read a low half-life as rapid decline.
